# Results reported in patent US8114865B2, “Indazole derivatives as kinase inhibitors for the treatment of cancer” (Nerviano Medical Sciences S.R.L., priority 2006, dated 2012).
# Assays:
# Aurora-2 = biological target: T1, Aurora-2 (Homo sapiens, UniProt O14965); test: Biochemical assay for inhibitors of Aurora-2 kinase activity; details: read-out: Aur2 IC50
# T1 sequence (O14965 1-403): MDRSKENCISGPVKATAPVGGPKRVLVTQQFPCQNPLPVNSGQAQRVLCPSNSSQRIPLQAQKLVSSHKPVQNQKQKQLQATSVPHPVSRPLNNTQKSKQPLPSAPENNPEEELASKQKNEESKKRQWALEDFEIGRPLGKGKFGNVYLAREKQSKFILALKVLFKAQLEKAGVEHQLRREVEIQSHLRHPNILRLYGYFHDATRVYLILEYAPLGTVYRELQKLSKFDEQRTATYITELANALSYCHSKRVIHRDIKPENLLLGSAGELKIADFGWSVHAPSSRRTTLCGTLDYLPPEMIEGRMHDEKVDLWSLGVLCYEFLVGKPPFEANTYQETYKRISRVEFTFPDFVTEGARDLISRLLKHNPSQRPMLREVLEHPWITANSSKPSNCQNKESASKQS
# Procedure: The in vitro kinase inhibition assay was conducted mimilarly as described for IGF-1R.
# The kinase buffer was composed of 50 mM HEPES, pH 7.0, 10 mM MgCl2, 1 mM DTT, 3 microM Na3VO4, and 0.2 mg/mL BSA.
# The kinase assay was run with an enzyme concentration of 2.5 nM, 10 microM ATP, 1 nM ^33P-γ-ATP, and 8 microM substrate, composed of 4 LRRWSLG repeats.
# IGF-1R = IGF-1R (Homo sapiens, UniProt P08069); test: Biochemical assay for inhibitors of IGF-1R kinase activity (trans-phosphorylation, Dowex); parameters: amino acid residues 960-1367 of precursor protein; made in house; host or cells: H5 insect cells (baculovirus; virus generated in Sf21); details: read-out: IGF1R IC50
# Chain of IGF-1R (P08069 960-1367): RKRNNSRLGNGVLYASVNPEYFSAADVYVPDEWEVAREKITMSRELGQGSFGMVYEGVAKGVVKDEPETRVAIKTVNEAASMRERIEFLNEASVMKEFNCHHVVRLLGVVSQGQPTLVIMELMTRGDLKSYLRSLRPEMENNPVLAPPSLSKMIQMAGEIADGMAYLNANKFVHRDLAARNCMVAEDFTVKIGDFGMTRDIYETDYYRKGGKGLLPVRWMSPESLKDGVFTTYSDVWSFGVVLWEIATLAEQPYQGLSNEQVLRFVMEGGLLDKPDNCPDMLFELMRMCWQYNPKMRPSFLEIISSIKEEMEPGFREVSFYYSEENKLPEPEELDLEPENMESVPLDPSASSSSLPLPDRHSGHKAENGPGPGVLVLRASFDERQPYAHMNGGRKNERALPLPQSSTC
# Procedure: Human cDNA was used as template for amplification by polymerase chain reaction (PCR) of the predicted cytoplasmic portion of IGF-1R (amino acid residues 960-1367 of precursor protein; see NCBI Entrez Protein Accession #P08069) which includes the entire kinase domain. PCR was conducted using the forward primer sequence 5′-[…]-3′ [SEQ ID NO: 1] and the reverse primer sequence 5′-[…]-3′[SEQ ID NO: 2].
# In order to facilitate subsequent cloning steps, both primers comprise a BamHI restriction endonuclease site sequence. This PCR product was cloned in frame using BamHI sticky ends into a transfer vector for the baculovirus expression system, pVL1392 (Pharmingen), previously modified by insertion into the pVL1392 multiple cloning site of sequences encoding Glutathione S-transferase (GST) fusion protein, PreScission protease cleavage site and partial MCS cassette derived from the pGex-6P plasmid (Amersham BioSciences). Insertion of the IGF-1R PCR product described above into the pGex-6P derived BamHI site of the modified pVL1392 vector results in an open reading frame corresponding to the pGEX-6P GST protein and PreScission peptide fused with the human IGF-1R cytoplasmic domain. In order to obtain fusion protein, Sf21 insect cells (Invitrogen) are cotransfected with 2 microg of purified plasmid and 1 microg of virus DNA (BaculoGold™ Transfection Kit, Pharmingen), as described in the Baculovirus Instruction manual (Pharmingen). A first amplification of the virus is performed using 600 microL of cotransfected virus on 6×10^6 Sf21 in a monolayer culture, in 12 mL of medium (TNM-FH Grace's medium—Pharmingen). After 3 days the medium is collected, centrifuged and transferred to a sterile tube. A second amplification is prepared with the same method using 2 mL on 3×10^7 cells, diluted in 40 mL of medium. For the third amplification of virus, 1 mL of supernatant from the second round are used per 3×10^7 cells diluted in 40 mL of medium. […]
# The inhibitory activity of putative kinase inhibitors and the potency of selected compounds were determined using a trans-phosphorylation assay. […]
IC50 (Aurora-2),IC50 (IGF-1R),Structure (SMILES)
0.026 µM,0.85 µM,"CN1CCN(c2ccc(C(=O)Nc3n[nH]c4ccc(S(=O)(=O)c5ccccc5)cc34)cc2)CC1 [Compound 1, N-(5-Benzenesulfonyl-1H-indazol-3-yl)-4-(4-methyl-piperazin-1-yl)-benzamide]"
0.009 µM,0.036 µM,"CN1CCN(c2ccc(C(=O)Nc3n[nH]c4ccc(S(=O)(=O)c5ccccc5)cc34)c(NC(=O)c3ccc[nH]3)c2)CC1 [Compound 33, 1H-pyrrole-2-carboxylic acid [2-(5-benzenesulfonyl-1H-indazol-3-ylcarbamoyl)-5-(4-methyl-piperazin-1-yl)-phenyl]amide]"
0.019 µM,0.23 µM,"CN1CCN(c2ccc(C(=O)Nc3n[nH]c4ccc(S(=O)(=O)c5ccccc5)cc34)c(NC(=O)[C@@H]3CCCO3)c2)CC1 [Compound 36, (S)-Tetrahydro-furan-2-carboxylic acid [2-(5-benzenesulfonyl-1H-indazol-3-ylcarbamoyl)-5-(4-methyl-piperazin-1-yl)-phenyl]-amide]"
